Results taken from the NIST ThermoML archive (doi:10.1016/j.jct.2016.10.035).
± gives the expanded uncertainty stated by the source.

Conditions: 298.15 K; 100 kPa; Crystal; X-ray diffraction

With `O=P([O-])([O-])[O-].O=P([O-])([O-])[O-].O=P([O-])([O-])[O-].[Ca+2].[Ca+2].[Ca+2].[Ca+2].[Ca+2].[OH-]` [hydroxyapatite] the mass density was 3155 ± 12 kg/m3.
